Results from patent publication US8404651B2, “Compositions and methods for treating viral infections” (priority 2008, dated 2013).
Values joined by “and” are separate entries in the source; they are usually repeats but may differ in a detail not shown here. Identical values can stand only once.

Tests used:
[1] = system: HCV replicon cell line, AVA5 [sub-genomic (CON1), genotype 1b]; experiment: microbe, parasite or virus in culture; assay type: cell-based; conditions: Hepatitis C virus
Method: Primary anti-HCV assay-Antiviral activity against HCV was assessed in a 3-day assay (Okuse, et al., 2005; Antiviral. Res. 65:23; Korba, et al., 2008, Antiviral Res. 77:56) using the stably-expressing HCV replicon cell line, AVA5 [sub-genomic (CON1), genotype 1b](Blight, et al., 2000, Science 290:1972) maintained as sub-confluent cultures on 96-well plates. Antiviral activity was determined by blot hybridization analysis of intracellular HCV RNA (normalized to the level of cellular B-actin RNA in each culture sample). Cytotoxicity was assessed by neutral red dye uptake in cultures maintained in parallel plates.
EC50, EC90, and CC50 values were calculated by linear regression analysis (MS EXCEL®, QUATTROPRO®) using data combined from all treated cultures Korba & Gerin, 1992, Antivir. Res. 19:55; Okuse, et al., 2005, Antivir. Res. 65:23). Standard deviations for EC50 and EC90 values were calculated from the standard errors generated by the regression analyses. […] The Selectivity index (S.I.) was calculated as CC50/EC50. Recombinant human interferon 2b (PBL laboratories, Inc.) was used as an assay control.
For each combination of agents, three concentration ratios, centered on the use of the compounds at equipotent antiviral concentrations, were used. A dilution series (six three-fold-concentration steps, beginning at the approximate EC90) was then generated with the concentration ratio of the two agents remaining the same in each dilution step. Toxicity analysis was performed as described above for the monotherapies. Analysis of drug interactions in the combination studies was determined by the use of the […] program (Biosoft, Inc., Cambridge, United Kingdom). This program evaluates synergy, additivity, or antagonism by use of several methodologies, including that of Chou and Talalay with a statistical analysis employing the Monte Carlo technique to provide confidence limits, fraction-affected-confidence interval (FA-CI) plots, isobolograms, and median-effect plots. (Belenkii, M. S. Schinazi, R. A method for the analysis of combination therapies with statistical analysis. Antiviral Res. 25, 11, 2005).

[2] = system: replicon cell line containing H/FL-Neo (genotype 1a (H77), full length construct); experiment: Secondary anti-HCV assay: genotype 1a replicon, format of the primary assay; assay type: cell-based; conditions: Hepatitis C virus
Source text: Res. 19:55; Okuse, et al., 2005, Antivir. Res. 65:23).
Secondary anti-HCV assay—This assay assesses activity against different HCV genotypes using the format described for the primary assay. Activity against the genotype 1b HCV is included for comparison. Currently available is a replicon cell line containing H/FL-Neo (genotype 1a (H77), full length construct) (Blight, et al., 2003, J. Virol. 77:3181).

[3] = MTT cytotoxicity assay, HFF; assay type: cell-based; conditions: human, HFF cells, 24-hour incubation
Method: Cellular cytotoxicity profile of the compounds was carried out against a panel of cell lines. Standard MTT assays were performed in 96-well plates using the Promega CellTiter96 Non-radioactive Cell Proliferation Assay Kit in conjunction with a 96-well Plate Reader (ThermoMax, Molecular devices), and MDBK, Vero, and HFF cell lines (obtained from ATCC). Several controls were employed including the nucleoside analogs 3TC, AZT, and ddC, as well as, media without drugs. SDS was used as a positive cytotoxic control. The compounds were tested in triplicate at concentrations of 100, 300, and 1000 μM. Following a 24-hour incubation of cells with the test substance, the MTT assay was carried out.

[4] = In vitro cytotoxicity, HepG2; assay type: cell-based; conditions: human, HepG2 cells
[5] = system: TA1537; experiment: In vitro bacterial mutagenicity assay (pre-incubation), strain TA1537; conditions: for Number of revertants x1, x2, x3: individual plates
Method: (§1) Dispense 100 microliter aliquots of the appropriate bacterial cultures into sample tubes stored on ice. Dispense aliquots of the vehicle, positive controls or dose formulations into the appropriate sample tubes. 2 mL top Agar and HBT cap was added to the sample tube, inverted three times and poured into MG plate. The lid was replaced on the plate and left on a level surface to let the agar harden. The plates were incubated in an incubator for 48 to 72 h. The background lawn and count the number of revertants was checked for each plate.

[6] = system: TA98; experiment: In vitro bacterial mutagenicity assay (pre-incubation), strain TA98; conditions: for Number of revertants x1, x2, x3: individual plates
Method: as §1

[7] = system: bacterial strains TA1535, TA1537, TA98, TA100, WP2 uvrA; experiment: In vitro bacterial mutagenicity assay, overall conclusions for all strains
Method: as §1

[8] = TA1537, absence of S9, 50 μg/plate
[9] = TA1537, absence of S9, 158 μg/plate
[10] = TA1537, absence of S9, 500 μg/plate
[11] = TA1537, absence of S9, 1581 μg/plate
[12] = TA1537, absence of S9, 5000 μg/plate
[13] = TA1537, presence of S9, 50 μg/plate
[14] = TA1537, presence of S9, 158 μg/plate
[15] = TA1537, presence of S9, 500 μg/plate
[16] = TA1537, presence of S9, 1581 μg/plate
[17] = TA1537, presence of S9, 5000 μg/plate
[18] = TA98, absence of S9, 50 μg/plate
[19] = TA98, absence of S9, 158 μg/plate
[20] = TA98, absence of S9, 500 μg/plate
[21] = TA98, absence of S9, 1581 μg/plate
[22] = TA98, absence of S9, 5000 μg/plate
[23] = TA98, presence of S9, 50 μg/plate
[24] = TA98, presence of S9, 158 μg/plate
[25] = TA98, presence of S9, 500 μg/plate
[26] = TA98, presence of S9, 1581 μg/plate
[27] = TA98, presence of S9, 5000 μg/plate

## COC1C(OP(=O)(OC[C@H]2O[C@@H](n3cnc4c(N)ncnc43)CC2O)SCOC(=O)OC(C)C)[C@@H](CO)O[C@H]1n1ccc(=O)[nH]c1=O (stereo partly shown) [Compound 2, S-isopropylcarbonyloxymethyl thiophosphate (6k) of 3′dApsU2′OMe]
[1]; Ava5, read-out: EC50 HCV type 1B
  EC50: 1000 nM
[1]; Ava5, read-out: EC90 HCV type 1B
  EC90: 6 µM
[2]; read-out: EC50 HCV Type 1A
  EC50: 2200 nM
[2]; read-out: EC90 HCV type 1A
  EC90: 8 µM
[3]
  CC50 at 24 h: > 1 mM
[4]
  CC50: > 100 µM
[5]; [8]
  Number of revertants mean: 11
  Number of revertants x1, x2, x3: 8 and 17 and 9
[5]; [9]
  Number of revertants mean: 12
  Number of revertants x1, x2, x3: 9 and 8 and 19
[5]; [10]
  Number of revertants mean: 10
  Number of revertants x1, x2, x3: 15 and 6 and 10
[5]; [11]
  Number of revertants mean: 15
  Number of revertants x1, x2, x3: 17 and 15 and 13
[5]; [12]
  Number of revertants mean: 11
  Number of revertants x1, x2, x3: 15 and 9 and 8
[5]; [13]
  Number of revertants mean: 17
  Number of revertants x1, x2, x3: 20 and 17 and 15
[5]; [14]
  Number of revertants mean: 18
  Number of revertants x1, x2, x3: 16 and 18 and 21
[5]; [15]
  Number of revertants mean: 17
  Number of revertants x1, x2, x3: 25 and 12 and 15
[5]; [16]
  Number of revertants mean: 15
  Number of revertants x1, x2, x3: 18 and 15 and 13
[5]; [17]
  Number of revertants mean: 12
  Number of revertants x1, x2, x3: 11 and 15 and 10
[6]; [18]
  Number of revertants mean: 22
  Number of revertants x1, x2, x3: 18 and 15 and 33
[6]; [19]
  Number of revertants mean: 27
  Number of revertants x1, x2, x3: 28 (2×) and 25
[6]; [20]
  Number of revertants mean: 24
  Number of revertants x1, x2, x3: 21 and 20 and 31
[6]; [21]
  Number of revertants mean: 25
  Number of revertants x1, x2, x3: 24 and 18 and 33
[6]; [22]
  Number of revertants mean: 24
  Number of revertants x1, x2, x3: 27 and 26 and 20
[6]; [23]
  Number of revertants mean: 45
  Number of revertants x1, x2, x3: 43 and 39 and 53
[6]; [24]
  Number of revertants mean: 40
  Number of revertants x1, x2, x3: 37 and 48 and 34
[6]; [25]
  Number of revertants mean: 39
  Number of revertants x1, x2, x3: 31 and 40 and 46
[6]; [26]
  Number of revertants mean: 45
  Number of revertants x1, x2, x3: 44 (2×) and 46
[6]; [27]
  Number of revertants mean: 44
  Number of revertants x1, x2, x3: 53 and 36 and 43
[7]; any strain, absence or presence of S9 mix
  increases in the revertant colony counts: No substantial increases in the revertant colony counts
[7]; formulated in DMSO, up to 5000 μg/plate
  precipitation in the bacterial mutation test: No precipitation was observed
[7]; up to 5000 μg/plate
  toxicity to the bacteria (thinning of the background lawn of non-revertant bacteria): non-toxic to the bacteria at the levels tested
